# Publication PMC8338929, “Acetylation turns leucine into a drug by membrane transporter switching” (Scientific Reports, 2021)
# “Also recorded” adds a separate entry of the source.
# Tests used:
# [1] = molecular target: T1, human PepT1 (SLC15A1) (Homo sapiens, UniProt P46059); assay: Inhibition of PepT1 uptake of probe substrate Gly-Sar in MDCK-II cells; assay type: cell-based; details: probe Gly-Sar 50 µM; positive control losartan 200 µM; pH 5.5
# T1 construct: host or cells: MDCK-II
# T1 sequence (P46059 1-708): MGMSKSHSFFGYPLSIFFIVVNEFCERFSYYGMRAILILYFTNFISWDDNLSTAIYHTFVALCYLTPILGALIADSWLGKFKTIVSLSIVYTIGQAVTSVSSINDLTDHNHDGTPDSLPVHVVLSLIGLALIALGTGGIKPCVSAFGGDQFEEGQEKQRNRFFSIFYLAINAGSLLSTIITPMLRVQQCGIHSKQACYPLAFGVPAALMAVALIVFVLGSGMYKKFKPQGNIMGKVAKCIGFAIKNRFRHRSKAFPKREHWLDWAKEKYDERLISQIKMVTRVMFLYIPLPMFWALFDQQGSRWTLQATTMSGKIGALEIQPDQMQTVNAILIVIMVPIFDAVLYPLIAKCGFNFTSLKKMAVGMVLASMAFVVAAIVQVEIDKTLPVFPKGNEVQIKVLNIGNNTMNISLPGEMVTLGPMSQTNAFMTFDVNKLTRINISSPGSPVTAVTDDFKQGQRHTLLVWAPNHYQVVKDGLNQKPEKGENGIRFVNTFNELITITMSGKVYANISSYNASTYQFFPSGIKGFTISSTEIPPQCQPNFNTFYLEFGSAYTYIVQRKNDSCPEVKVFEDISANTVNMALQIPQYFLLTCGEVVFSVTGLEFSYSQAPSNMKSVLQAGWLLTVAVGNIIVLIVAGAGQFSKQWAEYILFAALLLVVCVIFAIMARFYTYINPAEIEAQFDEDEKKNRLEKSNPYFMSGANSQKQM
# Description: (§1) Transport studies with human PepT1 (SLC15A1), LAT1 (SLC7A5) and MCT1 (SLC16A1) were conducted in MDCK-II cells expressing the human transporter or control cells expressing a vector with Green Fluorescence Protein. Cells were transfected using a proprietary, transient transfection system (OPTI-EXPRESSION Technology, BioIVT). The results from the control cells were used to correct for substrate permeation by routes other than the transporter being investigated in the study. […] Specifically, Net Transporter Mediated Substrate Uptake (pmol/min/cm^2) = (Cellular accumulation in the presence of the transporter) − (Mean cellular accumulation in the absence of the transporter). MDCK-II cells were maintained in DMEM with low glucose and 10% FBS. Cells were used at passages up to 40 were seeded at 60,000 ± 10,000 cells/well on 96-well plates approximately 24 h before transfection, and transport assays were performed approximately 48 h after transfection. […]
# (§2) Transport studies with PepT1 were conducted in 96-well cell culture plate with wells containing a monolayer of MDCK-II cells grown on a permeable support and a corresponding 96-well receiver tray. […] Then a 30-µL sample was taken and mixed with 200 µL of scintillation fluid and scintillation counted (1450 Microbeta, Perkin-Elmer). […]
# [2] = molecular target: T1, human PepT1 (SLC15A1); assay: PepT1-mediated cellular uptake in transfected MDCK-II cells; assay type: cell-based; details: pH 5.5, 37 °C
# Description: as §1, §2
structure (smiles),measurement,setting,value
CC(=O)N[C@@H](CC(C)C)C(=O)O [N-acetyl-L-leucine],IC50,[1],740 µM
same,substrate of PepT1 (uptake),[2],not transported; also recorded: not a substrate
